Read-outs that look alike come from different tables or passages of the source.

This is an account of results in US20080286785A1, “Method to predict or monitor the response of a patient to an erbb receptor drug” (AstraZeneca UK Limited, priority 2005, published 2008).

For assay [1] the following is noted: N. Engl. J. Med. 2004; 350(21):2129-2139; cited from earlier work.
Where [2] appears, read: all of the patients treated with gefitinib, 250 mg daily orally.
Where [3] appears, read: four patients with EGFR mutations detected in tumour samples.
The mark [4] stands for this setting: patients with EGFR mutations in serum.
The mark [5] stands for this setting: patients without EGFR mutations in serum.
Setting [6] is: serum EGFR mutation + by EGFR Scorpion Kit.
Where [7] appears, read: serum EGFR mutation + by direct sequence.
[8] abbreviates: serum EGFR mutation − by EGFR Scorpion Kit.
Where [9] appears, read: serum EGFR mutation − by direct sequence.

With `COc1cc2ncnc(Nc3ccc(F)c(Cl)c3)c2cc1OCCCN1CCOCC1` [gefitinib], the “patients that have a rapid and often dramatic clinical response” value in assay [1] is given as “about 10%”. Further, in the assay on NSCLC (28 patients enrolled, RECIST), the “Response PD (progressive disease), number of patients” value stood at 11 n; the “Response PR (partial response), number of patients” value turned out to be 9 n; the “Response SD (stable disease), number of patients” value came out at 8 n. Moreover, in the assay on NSCLC (setting [2]), the “median OS” value is 306 days and the “median PFS” value is given as 98 days. In the assay on NSCLC (setting [3]), the “responses to gefitinib: PD, number of patients” value stood at 1; the “responses to gefitinib: PR, number of patients” value was determined as 2; the “responses to gefitinib: SD, number of patients” value amounted to 1. Besides, in the assay on NSCLC (setting [4]), the “median OS” value was determined as 611 days and the “median PFS” value came out at 200 days. Moreover, in the assay on NSCLC (setting [5]), the “median OS” value was 232 days and the “median PFS” value is 46 days. In the assay with NSCLC (setting [6]), the “Response to gefitinib PD, number of patients” value (from here on “Response to gefitinib PD”) stood at 2 and the “Response to gefitinib PR/SD, number of patients” value (“Response to gefitinib PR/SD” below) amounted to 11. Moreover, in the assay on NSCLC (setting [7]), the “Response to gefitinib PD” value was found to be 2 and the “Response to gefitinib PR/SD” value was 8. Also, in the assay with NSCLC (setting [8]), the “Response to gefitinib PD” value is listed as 8 and the “Response to gefitinib PR/SD” value was determined as 6. Moreover, in the assay on NSCLC (setting [9]), the “Response to gefitinib PD” value amounted to 8 and the “Response to gefitinib PR/SD” value is given as 9.
